Each block holds one compound with its values, some of them ahead of it.
Columns and labels:
[1] = target: T1, Angiotensin-converting enzyme (Oryctolagus cuniculus, UniProt P12822); experiment: In vitro inhibition of angiotensin I converting enzyme (ACE)
T1 sequence (P12822 whole entry): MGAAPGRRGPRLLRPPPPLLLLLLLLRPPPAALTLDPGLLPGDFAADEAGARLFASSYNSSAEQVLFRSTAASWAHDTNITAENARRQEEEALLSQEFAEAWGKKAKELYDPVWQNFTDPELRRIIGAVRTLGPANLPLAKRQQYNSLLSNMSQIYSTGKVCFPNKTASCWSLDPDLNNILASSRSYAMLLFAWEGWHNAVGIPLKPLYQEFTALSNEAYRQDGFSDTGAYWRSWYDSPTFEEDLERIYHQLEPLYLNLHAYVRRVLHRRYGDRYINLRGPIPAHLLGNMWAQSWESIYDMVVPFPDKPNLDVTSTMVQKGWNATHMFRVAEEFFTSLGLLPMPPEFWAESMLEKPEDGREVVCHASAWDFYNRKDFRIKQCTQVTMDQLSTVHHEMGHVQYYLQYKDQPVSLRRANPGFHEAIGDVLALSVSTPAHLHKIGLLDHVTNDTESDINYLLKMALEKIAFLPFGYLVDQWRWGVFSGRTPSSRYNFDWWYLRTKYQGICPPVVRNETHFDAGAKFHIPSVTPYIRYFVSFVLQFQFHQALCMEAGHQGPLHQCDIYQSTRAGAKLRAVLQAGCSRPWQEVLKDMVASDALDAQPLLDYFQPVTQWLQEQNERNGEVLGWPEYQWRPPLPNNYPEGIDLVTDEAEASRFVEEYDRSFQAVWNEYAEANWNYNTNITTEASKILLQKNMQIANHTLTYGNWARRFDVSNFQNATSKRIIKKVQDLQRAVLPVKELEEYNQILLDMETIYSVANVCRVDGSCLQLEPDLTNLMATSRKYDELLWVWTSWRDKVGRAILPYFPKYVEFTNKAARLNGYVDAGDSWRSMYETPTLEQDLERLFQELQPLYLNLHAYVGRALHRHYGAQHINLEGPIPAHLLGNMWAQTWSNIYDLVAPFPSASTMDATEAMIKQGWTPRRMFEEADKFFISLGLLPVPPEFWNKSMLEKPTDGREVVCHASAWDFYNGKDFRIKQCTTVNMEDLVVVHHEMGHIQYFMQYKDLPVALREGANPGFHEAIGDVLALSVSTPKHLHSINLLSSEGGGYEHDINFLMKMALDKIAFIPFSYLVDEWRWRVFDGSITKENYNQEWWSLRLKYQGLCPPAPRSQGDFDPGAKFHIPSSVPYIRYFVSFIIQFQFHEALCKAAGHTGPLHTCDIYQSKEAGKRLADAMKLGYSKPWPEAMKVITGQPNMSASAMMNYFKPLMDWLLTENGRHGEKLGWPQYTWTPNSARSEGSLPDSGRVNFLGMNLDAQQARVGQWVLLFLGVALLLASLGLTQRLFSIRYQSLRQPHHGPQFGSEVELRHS

Rattus norvegicus [2] = experiment: In vivo percent inhibition of angiotensin I pressor response 15 min after 0.4 mg/kg, iv administration in spontaneously hypertensive rat (SHR); format: functional; settings: 0.25 h
Rattus norvegicus [3] = experiment: Maximal change in blood pressure recorded during the 4-day test period in spontaneously hypertensive rat (SHR)at 30 mg/kg, po dose; format: functional
Rattus norvegicus [4] = experiment: In vivo percent inhibition of angiotensin I pressor response 15 min after 0.10 mg/kg, iv administration in spontaneously hypertensive rat (SHR); format: functional; settings: 0.25 h
Rattus norvegicus [5] = experiment: Maximal change in blood pressure recorded during the 4-day test period in spontaneously hypertensive rat (SHR)at 50 mg/kg, p.o. dose; format: functional; settings: route oral
Rattus norvegicus [6] = experiment: In vivo percent inhibition of angiotensin I pressor response 15 min after 1 mg/kg, iv administration in spontaneously hypertensive rat (SHR); format: functional; settings: for inhibition in vivo at 1 mg/kg: Rattus norvegicus, iv, 0.25 h
Rattus norvegicus [7] = experiment: In vivo percent inhibition of angiotensin I pressor response 15 min after 10 mg/kg, iv administration in spontaneously hypertensive rat (SHR); format: functional; settings: 0.25 h
Rattus norvegicus [8] = experiment: Maximal change in blood pressure recorded during the 4-day test period in spontaneously hypertensive rat (SHR) at 30 mg/kg, po dose; format: functional
Rattus norvegicus [9] = experiment: In vivo percent inhibition of angiotensin I pressor response 15 min after 10mg/kg, iv administration in spontaneously hypertensive rat (SHR); format: functional; settings: 0.25 h
[10] = target: T1, Angiotensin-converting enzyme; experiment: In vitro inhibition of angiotensin converting enzyme
Rattus norvegicus [11] = experiment: In vivo percent inhibition of angiotensin I pressor response 15 min after 2 mg/kg, iv administration in spontaneously hypertensive rat (SHR); format: functional; settings: 0.25 h
Rattus norvegicus [12] = experiment: In vivo percent inhibition of angiotensin I pressor response 15 min after 0.3 mg/kg, iv administration in spontaneously hypertensive rat (SHR); format: functional; settings: 0.25 h
Rattus norvegicus [13] = experiment: Maximal change in blood pressure recorded during the 4-day test period in spontaneously hypertensive rat (SHR)at 10mg/kg, po dose; format: functional

SMILES: CCOC(=O)[C@H](CCc1ccccc1)C[C@@H](C)C(=O)N1c2ccccc2CC1C(=O)O (stereo not given in full)
- IC50 [1]: 11000 nM
- inhibition in vivo at 0.4 mg/kg (Rattus norvegicus [2]): 89%
- Max delta BP (Rattus norvegicus [3]): -70 mmHg

SMILES: CCOC(=O)CC[C@@H](C)C(=O)N1c2ccccc2CC1C(=O)O (stereo not given in full)
- IC50 [1]: 11000 nM
- inhibition in vivo at 0.1 mg/kg (Rattus norvegicus [4]): 27%
- Max delta BP (Rattus norvegicus [5]): -66 mmHg

SMILES: CC(C)(CC(=O)O)CC(=O)N1c2ccccc2CC1C(=O)O (stereo not given)
- IC50 [1]: 290000 nM

SMILES: C[C@H](C[C@@H](C)C(=O)N1CCC[C@H]1C(=O)O)C(=O)O
- IC50 [1]: 4800 nM

SMILES: CC(CC(=O)O)C(=O)N1c2ccccc2C[C@H]1C(=O)O (stereo not given in full)
- IC50 [1]: 300 nM
- inhibition in vivo at 1 mg/kg (Rattus norvegicus [6]): 27%

SMILES: CC(CCC(N)=O)C(=O)N1c2ccccc2CC1C(=O)O (stereo not given)
- IC50 [1]: 16000 nM
- inhibition in vivo at 10 mg/kg (Rattus norvegicus [9]): 71%

SMILES: COC(=O)CCC(C)C(=O)N1c2ccccc2CC1C(=O)O (stereo not given)
- IC50 [1]: 6900 nM
- inhibition in vivo at 0.1 mg/kg (Rattus norvegicus [4]): 45%
- Max delta BP (Rattus norvegicus [5]): -61 mmHg

SMILES: Cc1ccc2c(c1)CC(C(=O)O)N2C(=O)[C@H](C)C[C@@H](C)C(=O)O (stereo not given in full)
- IC50 [10]: 490 nM
- inhibition in vivo at 2 mg/kg (Rattus norvegicus [11]): 40%

SMILES: O=C(O)CCCC(=O)N1CCC[C@H]1C(=O)O
- IC50 [1]: 70000 nM

SMILES: CCOC(=O)[C@@H](CCC(=O)N1c2ccccc2CC1C(=O)O)CCc1ccccc1 (stereo not given in full)
- IC50 [1]: 4300 nM
- inhibition in vivo at 1 mg/kg (Rattus norvegicus [6]): 17%

SMILES: CC(CCC(=O)N1c2ccccc2CC1C(=O)O)C(=O)O (stereo not given)
- IC50 [1]: 920 nM
- inhibition in vivo at 10 mg/kg (Rattus norvegicus [9]): 41%

SMILES: CCOC(=O)C1Cc2ccccc2N1C(=O)CCC(C)C(=O)O (stereo not given)
- IC50 [1]: 170000 nM
- inhibition in vivo at 10 mg/kg (Rattus norvegicus [9]): 11%

SMILES: CC(CC(=O)O)CC(=O)N1c2ccccc2CC1C(=O)O (stereo not given)
- IC50 [1]: 37000 nM
- inhibition in vivo at 10 mg/kg (Rattus norvegicus [9]): 20%

SMILES: CCOC(=O)C1Cc2ccccc2N1C(=O)C(C)CC(C)C(=O)O (stereo not given)
- IC50 [1]: 8800 nM
- inhibition in vivo at 10 mg/kg (Rattus norvegicus [9]): 84%
- Max delta BP (Rattus norvegicus [5]): -33 mmHg

SMILES: CCOC(=O)C1Cc2ccccc2N1C(=O)[C@H](C)C[C@@H](C)C(=O)O (stereo not given in full)
- IC50 [1]: 28000 nM
- inhibition in vivo at 0.3 mg/kg (Rattus norvegicus [12]): 16%

SMILES: CCOC(=O)[C@H](C)C[C@@H](C)C(=O)N1c2ccccc2CC1C(=O)O (stereo not given in full)
- IC50 [1]: 5500 nM
- inhibition in vivo at 0.1 mg/kg (Rattus norvegicus [4]): 52%
- Max delta BP (Rattus norvegicus [5]): -75 mmHg

SMILES: C[C@H](C[C@@H](C)C(=O)N1c2ccc(Cl)cc2CC1C(=O)O)C(=O)O (stereo not given in full)
- IC50 [1]: 440 nM
- inhibition in vivo at 2 mg/kg (Rattus norvegicus [11]): 32%

SMILES: C[C@H](CS)C(=O)N1CCC[C@H]1C(=O)O [CAPTOPRIL]
- inhibition in vivo at 1 mg/kg (Rattus norvegicus [6]): 90%
- Max delta BP (Rattus norvegicus [13]): -45 mmHg
- Max delta BP (Rattus norvegicus [3]): -55 mmHg

More lines, in order of falling IC50 [1], values ahead:

- IC50 [1]: 260 nM
SMILES: O=C(O)CCCC(=O)N1c2ccccc2CC1C(=O)O (stereo not given)
- inhibition in vivo at 10 mg/kg (Rattus norvegicus [7]): 78%
- Max delta BP (Rattus norvegicus [8]): -37 mmHg

- IC50 [1]: 190 nM
SMILES: CC(CC(C)C(=O)N1c2ccccc2CC1C(=O)O)C(=O)O (stereo in doubt; 6m)
- inhibition in vivo at 1 mg/kg (Rattus norvegicus [6]): 76%

- IC50 [1]: 110 nM
SMILES: COc1ccc2c(c1)CC(C(=O)O)N2C(=O)[C@H](C)C[C@@H](C)C(=O)O (stereo not given in full)
- inhibition in vivo at 1 mg/kg (Rattus norvegicus [6]): 56%

- IC50 [1]: 64 nM
SMILES: CC(CCC(=O)O)C(=O)N1c2ccccc2CC1C(=O)O (stereo not given)
- inhibition in vivo at 1 mg/kg (Rattus norvegicus [6]): 84%
- Max delta BP (Rattus norvegicus [5]): -61 mmHg

- IC50 [1]: 54 nM
SMILES: CC(CC(C)C(=O)N1c2ccccc2CC1C(=O)O)C(=O)O (stereo in doubt; 6n)
- Inhibition (Rattus norvegicus [6]; 1 mg/kg): 84%

- IC50 [1]: 50 nM
SMILES: CC(C)C(CCC(=O)O)C(=O)N1c2ccccc2CC1C(=O)O (stereo not given)
- inhibition in vivo at 1 mg/kg (Rattus norvegicus [6]): 77%

- IC50 [1]: 44 nM
SMILES: C[C@H](CCC(=O)O)C(=O)N1c2ccccc2CC1C(=O)O (stereo not given in full)
- inhibition in vivo at 1 mg/kg (Rattus norvegicus [6]): 94%
- Max delta BP (Rattus norvegicus [3]): -35 mmHg

- IC50 [1]: 39 nM
SMILES: O=C(O)C(CCC(=O)N1c2ccccc2CC1C(=O)O)CCc1ccccc1 (stereo not given)
- inhibition in vivo at 10 mg/kg (Rattus norvegicus [9]): 75%
- Max delta BP (Rattus norvegicus [5]): -46 mmHg

- IC50 [1]: 33 nM
SMILES: O=C(O)C1Cc2ccccc2N1C(=O)CC[C@@H](CCc1ccccc1)C(=O)O (stereo not given in full)

- IC50 [1]: 28 nM
SMILES: C[C@H](C[C@@H](C)C(=O)N1c2ccccc2CC1C(=O)O)C(=O)O (stereo not given in full)
- inhibition in vivo at 0.1 mg/kg (Rattus norvegicus [4]): 45%
- Max delta BP (Rattus norvegicus [5]): -39 mmHg

- IC50 [1]: 4.8 nM
SMILES: C[C@H](C[C@@H](CCc1ccccc1)C(=O)O)C(=O)N1c2ccccc2CC1C(=O)O (stereo not given in full)
- inhibition in vivo at 0.1 mg/kg (Rattus norvegicus [4]): 60%
